# Source: US10053666B2, “Medium for preparing a neural cell and usage thereof” (SHENZHEN CELL INSPIRE BIOTECHNOLOGY CO., LTD., priority 2014, dated 2018)
# Legend:
# WI38 = assay: Conversion of fibroblast cell line to neural cell / iOPC in neural induction medium; assay type: cell-based, human; conditions: for conversion into neural cell: 10 μM in neural induction medium, WI38
# Experimental: (§1) Using the same method with EXAMPLE 1, cultured fiber cell line IMR90 and WI38 with neural induction medium including 10 μM Y27632, Palomid 529, LY294002, PF562271 or rapamycin.
# (§2) In contrast, after 4 weeks in the same induction medium without ROCK inhibitor, cells kept fibroblast morphology with negative staining of O4, A2B5, and S100β (data not shown). […] To confirm conversion of fibroblasts to iOPCs by ROCK inhibitor, additional two human primary fibroblast cell lines, IMR90 and WI38, were tested using the same fibroblast—OPC conversion conditions. Consistent with the results from adult dermal cells, inventors observed 60-80% of fibroblast—OPC conversion in these two cell lines (data not shown). Next, inventors assessed whether the iOPCs could differentiate into mature oligodendrocytes. After removing growth factors and addition of thyroid hormone (a known inducer of oligodendrocyte differentiation) in cell culture medium, about 70% of the iOPCs differentiated into cells with a multiprocessed morphology typical of oligodendrocytes within 3-7 days (FIG. 2b). The oligodendrocytes expressed myelin basic protein (MBP), an integral protein component of the myelin sheath, and other defining markers of mature oligodendrocytes, including myelin-associated glycoprotein and myelin oligodendrocyte glycoprotein (FIG. 2b). Thus, inventors concluded that ROCK inhibitor-induced iOPCs can be further differentiated into mature functional oligodendrocytes.
# IMR90 = assay: as above; assay type: cell-based, human; conditions: for conversion into neural cell: 10 μM in neural induction medium, IMR90
# Experimental: as §1, §2
# IMR90 fibroblasts = assay: Direct conversion of fibroblasts to neurons and astrocytes; assay type: cell-based, human
# Experimental: To assess the general application of ROCK inhibitor for direct conversion of different neural cells, inventors tweaked the protocol for induction of iOPCs and successfully converted fibroblasts to typical neurons and astrocytes. using the following procedure:
# at Day 1, coat tissue culture 24-well plate with 0.1 mg/ml Poly-L-ornithine solution (sigma, P4957) for at least 3 hours; wash wells 3 times with autoclaved MilliQ water, 5 mins each; add 500 ul/well of 2 μg/ml Fibronectin (sigma, F0556) and 10 μg/ml Laminin (ROCHE, 11243217001) solution in 1×PBS and place in incubator overnight to coat. At Day 2, aspirate the F/L solution from the well, wash with basic medium and plate fibroblast cells with basic medium at 2×10^4 cells per well. At Day 3, aspirate basic medium from the well, wash with PBS once, and feed cells with induction medium. From Day 6-10, when cells change their morphology into neural-like cells, culture cells with mature medium or OPC medium.
# [1] = tested on: human adult dermal fibroblasts; assay: Screening of protein kinase inhibitor library for fibroblast-OPC conversion; assay type: cell-based; conditions: with retinoic acid (RA), neural induction medium, quantified on day 7
# Experimental: 1. Coated cell culture 24-well plate with 0.1 mg/ml Poly-L-ornithine solution (sigma, P4957) for at least 3 hours. Then washed wells 3 times with autoclaved MilliQ water, 5 mins per time.
# 2. Added 500 ul/well of […] Fibronectin (sigma, F0556) and […] Laminin (ROCHE, 11243217001) solution in 1×PBS and placed in incubator overnight to coat.
# 3. Aspirated the Fibronectin/Laminin solution from the wells, washed with culture medium.
# 4. Plated fibroblast cells with Basic Medium at 2×10^4 cells (human adult dermal fibroblasts, ATCC, PCS-201-012) per well, cultured overnight. The Basic Medium comprises: DMEM high glucose (HyClone, SH30022), 10% FBS (Fisher Scientific, SH3007003), 10 mM HEPES (CORNING 25060-CL), 1×MEM NEAA (100×) (GIBCO, 11140) (MEM Non-Essential Amino Acids Solution), 1 mM Na Pyruvate (GIBCO, 25000), 1×2-Mercaptoethanol (1000×) (GIBCO, 21985), 1× Glutamax (100×) (GIBCO, 35050), penicillin/streptomycin.
# 5. Aspirated Basic Medium from the wells.
# 7. Fed wells with Induction Medium. Changed medium every two days. […]
# dermal fibroblasts = assay: Immunostaining of OPC-specific biomarkers after 7-day induction; assay type: cell-based, human
# Experimental: After 7-day induction with ROCK inhibitor treatment, cells were fixed and analyzed by immunostaining of the OPC-specific biomarker, O4. Immunofluorescence staining was performed as following steps:
# Briefly, 5×10^4 modified human fibroblasts were planted on coated glass coverslips the day before induction. After induction, cells were fixed for 20 min at room temperature in 4% paraformaldehyde in PBS, permeabilized for 30 min in PBS containing 0.2% Triton X-100 and 10% normal goat serum (NGS), and incubated overnight at 4° C. in PBS containing 10% NGS and primary antibodies. Then cells were washed three times with PBS and incubated for 2 h at room temperature with anti-rabbit or anti-mouse secondary antibodies Alexa Fluor-488 or Alexa Fluor-594 (1:500, Invitrogen). The images were acquired by immunofluorescence microscope or Zeiss LSM 510 META confocal microscope with 40×, 1.3 numerical aperture oil-immersion objective.
# The following antibodies were used for the immunofluorescence studies: mouse anti-04 (Millipore, 1:50), rabbit anti-NF (Sigma-Aldrich, 1:1000), mouse anti-A2B5 (Millipore, 1:50), MBP (1:100, Covance; 1:100, Abcam), MAG (Millipore, 1:50), MOG (Millipore, 1:50).
SMILES,conversion into neural cell (WI38),conversion into neural cell (IMR90),staining of astrocyte-specific biomarker GFAP in induced astrocytes (IMR90 fibroblasts; induced astrocytes),staining of neuronal biomarkers Tuj and MAP2 in induced neuronal cells (IMR90 fibroblasts; induced neuronal cells (iNCs)),"fibroblast-OPC conversion (WI38; WI38, same conversion conditions (data not shown))","fibroblast-OPC conversion (IMR90; IMR90, same conversion conditions (data not shown))",efficiency of conversion of human fibroblasts into iOPCs (OPC positive cells counted by morphology) [1] [%],dermal fibroblasts converted to O4-positive cells with OPC morphology (dermal fibroblasts; 7-day induction),staining with additional OPC markers A2B5 and S100β (dermal fibroblasts; O4 positive cells after 7-day induction)
CN(c1ncccc1CNc1nc(Nc2ccc3c(c2)CC(=O)N3)ncc1C(F)(F)F)S(C)(=O)=O [PF562271],converted into neural cell,converted into neural cell,,,,,,,
COc1ccc(COc2cc3oc(=O)c4cc(C(C)O)ccc4c3cc2OC)cc1 (stereo not shown) [Palomid 529],converted into neural cell,converted into neural cell,,,,,,,
C[C@@H](N)[C@H]1CC[C@H](C(=O)Nc2ccncc2)CC1 [Y27632],converted into neural cell,converted into neural cell,positive staining,positive staining,60-80%,60-80%,~80,about 80%,positive staining
